Test results: US7018345B2, “Iontophoresis system” (Hisamitsu Pharmaceutical Co., Inc., priority 2002, dated 2006)
Where two headings read alike, the source gives them in different places.

Assay: Iontophoretic administration of salmon calcitonin to beagles, blood level by RIA
Format: in vivo, beagle (dog)
Conditions: for level at 0.5 h: beagle, dog, blood, pulse depolarization iontophoresis 0.2 mA for 30 min, measured 30 minutes later, beagles under pentobarbital anesthesia, read-out: blood concentration of salmon calcitonin
Method: Beagles were put under pentobarbital anesthesia. A positive electrode pad containing salmon calcitonin 1000 unit (an extraction pad of an electrode structure applied to the mucous membrane of the mouth) was applied to the mucous membrane of the mouth of each beagle. A negative electrode (a counter pad of an electrode structure applied to the skin) was applied to the ear of the beagle. A pulse depolarization type iontophoresis system was used to apply a 0.2-mA current for 30 minutes. Then, 30 minutes later, the level of salmon calcitonin in the blood was measured. An RIA kit (ROIK6003, Peninsula) was used for quantification.
As in the case with Example 3, salmon calcitonin was administered to beagles under pentobarbital anesthesia. However, the positive electrode pad was not applied to the mucous membrane of the mouth but to the skin (belly). The negative electrode was applied to the ear. The other conditions are similar to those for Example 3.
FIG. 4 is a graph showing the blood concentration observed 30 minutes after the application of the present system to the mucous membrane of the mouth (Example 3) and to the skin (Comparative Example 1). The blood concentration was about 530 pg/ml 30 minutes after salmon calcitonin was administered to the dog via the mucous membrane of the mouth (Example 3). The blood concentration was about 90 pg/ml 30 minutes after salmon calcitonin was administered to the dog via the skin (Comparative Example 1). Calcitonin is ionized, but owing to its […], calcitonin permeates through the living body as a result of the flow of water caused by iontophoresis instead of its direct electric driving force.

**Q.** What does the source list for `CC(C)C[C@H](NC(=O)[C@H](CCCCN)NC(=O)CNC(=O)[C@H](CC(C)C)NC(=O)[C@@H](NC(=O)[C@@H]1CSSC[C@H](N)C(=O)N[C@@H](CO)C(=O)N[C@@H](CC(N)=O)C(=O)N[C@@H](CC(C)C)C(=O)N[C@@H](CO)C(=O)N[C@@H]([C@@H](C)O)C(=O)N1)C(C)C)C(=O)N[C@@H](CO)C(=O)N[C@@H](CCC(N)=O)C(=O)N[C@@H](CCC(=O)O)C(=O)N[C@@H](CC(C)C)C(=O)N[C@@H](Cc1c[nH]cn1)C(=O)N[C@@H](CCCCN)C(=O)N[C@@H](CC(C)C)C(=O)N[C@@H](CCC(N)=O)C(=O)N[C@H](C(=O)N[C@@H](Cc1ccc(O)cc1)C(=O)N1CCC[C@H]1C(=O)N[C@@H](CCCNC(=N)N)C(=O)N[C@H](C(=O)N[C@@H](CC(N)=O)C(=O)N[C@H](C(=O)NCC(=O)N[C@@H](CO)C(=O)NCC(=O)N[C@H](C(=O)N1CCC[C@H]1C(N)=O)[C@@H](C)O)[C@@H](C)O)[C@@H](C)O)[C@@H](C)O` [salmon calcitonin]?
**A.** level at 0.5 h (topical or ocular, Comparative Example 1: positive electrode pad (1000 unit) on skin (belly)): ~0.09 ng/mL; level at 0.5 h (Example 3: positive electrode pad (1000 unit) on mucous membrane of the mouth): ~0.53 ng/mL; absorptivity of mucous membrane relative to skin (iontophoresis, mucous membrane vs skin): six
